# Entries after “also recorded” stand apart in the source; their conditions may differ. Where two headings read alike, the source gives them in different places.
# Legend:
# SK-MEL-3 tumor = test: Effect on SK-MEL-3 tumor growth in mice; type: in vivo; conditions: 68 mCi/m^2
# Source text: FIG. 6 illustrates the effect of ^131I-Cmpd A (68 mCi/m^2) on SK-MEL-3 tumor growth at various dose levels.
# FIG. 7 illustrates the effect of ^131I-Cmpd A (68 mCi/m^2) on SK-MEL-3 tumor growth in mice at various dose levels. […] (Please note that animals were euthanized if tumor volume was>1500 mm^3).
# Effects of ^131I-Cmpd A (68 mCi/m^2) on SK-MEL-3 tumor growth were investigated in mice. Saline and dacarbazine were used as references for the study. In this experiment, different batches of mice were administered a dose of 68 mCi/m^2 of ^131I-Cmpd A once a day, twice a day, and thrice a day. The treatment lasted for 125 days. The mice were euthanized if tumor volume was greater than 1500 mm^3. The treated mice were closely monitored and sacrificed if any signs of approaching death were shown. Tumor change (length and width of tumor) was monitored every few days.
# [1] = Stability in ^131I-labeling, Tl(TFA)3/TFA iodination (Example 6-A); type: physicochemical; conditions: for chemical stability during the radioiodination: Tl(TFA)3/TFA iodination; for Identified impurity (%) / RCP (%): after ^131I-labeling with 2.5 mCi Na^131I
# Source text: Purpose: ^131I-labeling yield and stability were compared side-by-side for (Compound C, Compound D and Compound A) together with Compound B (with or without addition of Dioxolane).
# Results: The T1(TFA)3/TFA iodination method could be used for ^131I-Compound C, ^131I-Compound D and Compound A. Different from Compound B, there was almost no degraded impurities occurred during the labeling (^131I-Compound C, ^131I-Compound D or Compound A) at a radioactivity dose level of 2.5 mCi.
# B16F10 tumor = test: Organ distribution and tumor accumulation in B16F10 tumor bearing mice; type: in vivo; conditions: for biodistribution (distribution properties): B16F10 tumor bearing mice, 1 hour and 24 hour after intravenous administration, FIG. 4
# Experimental: FIG. 3 illustrates the biodistribution of ^131I-Cmpd B and ^131I-Cmpd BD in B16F10 bearing mice.
# FIG. 4 illustrates the biodistribution of ^131I-Cmpd A, ^131I-Cmpd B, ^131I-Cmpd C, and ^131I-Cmpd D in B16F10 tumor bearing mice.
# The organ distribution and tumor accumulation experiments were performed in B16F10 tumor bearing mice. At times indicated (1 hour and 24 hour) after intravenous administration of the substances, the animals were sacrificed, organs and tumors were removed, optionally dabbed dry, weighed, and measured for radioactive content in a calibrator with the corresponding isotope standard. The results are depicted as % of the injected dose/gm of tissue. FIG. 4 illustrates the biodistribution of ^131I-Cmpd A, ^131I-Cmpd B, ^131I-Cmpd C, and ^131I-Cmpd D in B16F10 tumor bearing mice.
# [2] = Stability post labelling in radiolysis protecting buffer, 3 days storage at RT (Example 6-B); type: physicochemical; conditions: for Free ^131I (%) / Identified impurity (%) / RCP (%): RT, radiolysis protecting buffer, ~11 mCi/mL
# [3] = Tumor uptake and retention of ^123I-Compound B in B16 melanoma bearing mice; type: in vivo; conditions: mouse
# Source text: Tumor uptake and retention of ^123I-Compound B in B16 melanoma bearing mice (% ID/g) was as shown in Table B. Those studies were done using the method disclosed in Eisenhut et al., J. Med. Chem. 2000, 43(21), 3913-22.
# melanin = melanin targeting / binding capacity in vitro and in vivo
# [4] = Solubility over one week storage at RT, visual inspection and HPLC (Example 7-C); type: physicochemical; conditions: for HPLC measured conc. at 7 days: 3 mg/mL prepared, with 3% acetic acid; for aqueous solubility: comparison among the tested compounds
# Experimental: Compound C and Compound D were dissolved in acetic acid first, and then with PEG400/ethanol; the solution was finally diluted in matrix into a final concentration of 3 mg/mL. The matrix included 3% sodium gentisate (w/v) and 6% ascorbic acid (w/v) (pH=3.6). The prepared sample solution was kept at RT and examined by visual inspection. The concentration of the tested compounds in the solution or in the supernatant was analyzed by HPLC.
# [5] = Solubility at 3 mg/mL, dissolved in acetic acid, then PEG400/ethanol, then matrix, visual inspection (Example 7-B); type: physicochemical; conditions: 3% acetic acid, 30% PEG400, 2% ethanol, 6% ascorbic acid, 3% sodium gentisate, pH=3.6, RT
# Experimental: The compounds were dissolved in acetic acid first, and then diluted with PEG400/ethanol; the solution was finally diluted in matrix into a final concentration of 3 mg/mL. The components of the matrix included 3% sodium gentisate (w/v) and 6% ascorbic acid (w/v) (pH=3.6). The prepared sample solution was kept at RT and examined by visual inspection.
# B16 melanoma = B16 melanoma bearing C57BL/J1 mouse, cited from earlier work
# [6] = protected with 10 μL of Dioxolane
smiles,measurement,setting,value
"CCN(CC)CCNC(=O)c1cc([131I])c(NC(=O)c2ccc(F)cc2)cc1OC [Compound A, N-(2-(diethylamino)ethyl)-4-(4-fluoro-benzoylamino)-5-iodo-2-methoxybenzamide]",tumor growth (tumor change),"SK-MEL-3 tumor; SK-MEL-3 tumor in mice, FIG. 6",reducing the tumor growth
same,survival of the mice,"SK-MEL-3 tumor; SK-MEL-3 tumor in mice, FIG. 7",increasing survival of the mice
same,response to treatment,SK-MEL-3 tumor; human melanoma mouse xenograft model,complete response (CR) has been observed
same,chemical stability during the radioiodination,[1],stable
same,biodistribution (distribution properties),B16F10 tumor,desirable distribution properties
same,tumor uptake and retention,B16F10 tumor; tumor bearing animal models,significant high tumor uptake and prolonged retention
"CCN(CC)CCNC(=O)c1cc(I)c(NC(=O)c2ccc3c(c2)OCO3)cc1OC [Compound B, benzo[1,3]dioxole-5-carboxylic acid [4-(2-diethylamino-ethylcarbamoyl)-2-iodo-5-methoxyphenyl]amide]",chemical stability during the radioiodination,[1],poor chemical stability
same,Identified impurity (%),[1]; Tl(TFA)3/TFA,5.5%
same,RCP (%),[1]; Tl(TFA)3/TFA,90.3%
same,Identified impurity (%),[1]; [6],2.3%
same,RCP (%),[1]; [6],94.0%
same,Free ^131I (%),[2]; 0 day,0.1%
same,Identified impurity (%),[2]; 0 day,10.3%
same,RCP (%),[2]; 0 day,89.5%
same,Free ^131I (%),[2]; 3 day,2.4%
same,Identified impurity (%),[2]; 3 day,8.8%
same,RCP (%),[2]; 3 day,88.6%
same,stability during the 3 days storage at RT post labeling,"[2]; diluted in radiolysis protecting solution, Compound B vs Compound A",no significant difference in stability
same,biodistribution (distribution properties),B16F10 tumor,desirable distribution properties
same,tissue uptake at 1 h,[3]; 1 h,14.8 %ID/g
same,tissue uptake at 5 h,[3]; 5 h,22.7 %ID/g
same,tissue uptake at 48 h,[3]; 48 h,16.6 %ID/g
same,melanin targeting capacity,melanin,found to have melanin targeting capacity both in vitro and in vivo
"CCN(CC)CCNC(=O)c1cc(I)c(NC(=O)c2ccc(Cl)cc2)cc1OC [Compound C, 4-(4-chlorobenzoylamino)-N-(2-(diethylamino)ethyl)-5-iodo-2-methoxybenzamide]",chemical stability during the radioiodination,[1],stable
same,Identified impurity (%),[1]; Tl(TFA)3/TFA,0%
same,RCP (%),[1]; Tl(TFA)3/TFA,97.1%
same,biodistribution (distribution properties),B16F10 tumor,desirable distribution properties
same,HPLC measured conc. at 7 days,"[4]; RT, concentration in the supernatant",0.23 mg/mL
same,Solution inspection at 7 days,"[4]; 3 mg/mL, 3% acetic acid, 30% PEG400, 2% ethanol, 6% ascorbic acid, 3% sodium gentisate, RT",Precipitation**
same,aqueous solubility,[4],poor aqueous solubility; also recorded: Compound A>Compound D>>Compound C
same,Solution inspection,[5],Clear solution
same,melanin targeting capacity,melanin,found to have melanin targeting capacity both in vitro and in vivo
"CCN(CC)CCNC(=O)c1cc(I)c(NC(=O)c2ccc(OC)cc2)cc1OC [Compound D, N-(2-diethylamino-ethyl)-5-iodo-2-methoxy-4-(4-methyoxybenzoylamino)benzamide]",chemical stability during the radioiodination,[1],stable
same,Identified impurity (%),[1]; Tl(TFA)3/TFA,0%
same,RCP (%),[1]; Tl(TFA)3/TFA,~100%
same,biodistribution (distribution properties),B16F10 tumor,desirable distribution properties
same,HPLC measured conc. at 7 days,[4]; RT,2.89 mg/mL
same,aqueous solubility,[4],poor aqueous solubility; also recorded: Compound A>Compound D>>Compound C
same,Solution inspection,[5],Clear solution
same,melanin targeting capacity,melanin,found to have melanin targeting capacity both in vitro and in vivo
CCN(CC)CCNC(=O)c1ccc([123I])cc1 [^123I-BZA],tumor wash-out (% ID/g),B16 melanoma; 1 h,6.8 % ID/g
same,tumor wash-out (% ID/g),B16 melanoma; 24 h,0.8 % ID/g
same,tumor wash-out (% ID/g),B16 melanoma; 72 h,0.3 % ID/g

# — patent US20110206608A1, “Pharmaceutical Composition Of A Radioiodinated Benzamide Derivative And Methods Of Making Same” (priority 2008, published 2011)
